Structures can show the parent of a compound that is named as a salt.

This is an account of results in US9309222B2, “Phenyl linked quinolinyl modulators of RORγt” (Janssen Pharmaceutica NV, priority 2012, dated 2016).

The target of assay [1] is T1, human RORγt ligand binding domain (RORγt LBD) (Homo sapiens, UniProt P51449).
T1 construct: His-tag (N); TurboTEV protease cleavage site (ENLYFQG) (N); made in house; host or cells: E. coli (pHIS1, modified pET vector)
T1 sequence (P51449 with tags, fused parts or gaps): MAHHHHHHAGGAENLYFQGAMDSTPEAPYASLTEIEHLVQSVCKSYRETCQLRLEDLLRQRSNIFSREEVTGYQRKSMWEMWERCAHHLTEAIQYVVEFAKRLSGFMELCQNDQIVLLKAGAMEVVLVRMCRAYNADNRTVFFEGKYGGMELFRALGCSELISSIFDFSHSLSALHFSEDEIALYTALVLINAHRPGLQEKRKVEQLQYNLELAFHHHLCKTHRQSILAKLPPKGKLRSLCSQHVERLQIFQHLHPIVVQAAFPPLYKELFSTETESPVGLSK
Put plainly: RORγt ThermoFluor assay (thermal shift, ligand binding affinity). To be noted: estimated from concentration response of thermal shift. The gist of the method:
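Thermal shift of 0.065 mg/mL RORγt with 60 μM 1,8-ANS in 100 mM Hepes pH 7.0, 10 mM NaCl, 2.5 mM GSH, 0.002% Tween-20. Compounds in 1:2 series from 10 mM DMSO stock. Dye fluorescence (500 nm emission) tracked versus temperature; ΔTm used to derive KD.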

The next assay has as its target T2, human RORγt LBD (Homo sapiens, UniProt P51449).
T2 construct: expressed in transfected cells
T2 sequence (P51449 258-518): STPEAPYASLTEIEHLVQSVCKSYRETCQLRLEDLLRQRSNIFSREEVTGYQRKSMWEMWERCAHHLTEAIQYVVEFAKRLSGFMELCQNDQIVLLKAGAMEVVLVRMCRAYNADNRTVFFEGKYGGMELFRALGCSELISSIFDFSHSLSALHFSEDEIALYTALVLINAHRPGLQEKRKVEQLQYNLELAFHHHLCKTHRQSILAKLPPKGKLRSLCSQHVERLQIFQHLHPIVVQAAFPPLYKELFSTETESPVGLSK
Put plainly: RORγt reporter assay (GAL4-RORγt LBD luciferase in HEK293T cells). In kind it is cell-based. To be noted: for IC50: HEK293T cells, 24 hours compound treatment; for inhibition at 6 µM: HEK-293T, read-out: RORγt reporter Assay, % inhibition @ 6 μM, HEK293T cells, 6 μM compound. Put shortly: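 HEK293T cells transiently co-transfected with pBIND (GAL4 DBD fused to wild-type human RORγt LBD, plus SV40-driven renilla luciferase) and pGL4.31 GAL4-responsive firefly luciferase reporter. Plated in phenol-red-free DMEM with 5% lipid-reduced FCS and treated with compound for 24 h. Firefly/renilla luminescence ratio plotted against compound concentration.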

Assay [2] concerns IL-17 production by CD4 T cells. The assay can be described thus: Human Th17 assay (IL-17 production by CD4 T cells under Th17 differentiation conditions). It counts as cell-based. To be noted: Homo sapiens, CD4+ T, 72 h, IL-17 in supernatant after 3 days. The gist of the method:
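Primary CD4+ T cells from healthy-donor PBMC, preincubated 1 h with titrated compound (0.2% DMSO), then activated with anti-CD3/CD28 beads plus anti-IL4, anti-IFNγ, IL1β, IL23, IL6, TGFβ and IL2.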

For `OC(c1ccc(Cl)cc1)(c1cccnc1)c1ccc2nc(-c3cncnc3)c(-c3ccccc3)c(Cl)c2c1` (centres unmarked) [Example 152, (4-Chloro-3-phenyl-2-(pyrimidin-5-yl)quinolin-6-yl)(4-chlorophenyl)(pyridin-3-yl)methanol], the equilibrium dissociation constant (Kd) in assay [1] was 0.77 µM. Further, the IC50 against human RORγt LBD came out at 0.35 µM; in assay [2], 1.2 µM. In addition, at human RORγt LBD, the inhibition at 6 µM came out at 97%.

Turning to `Cn1c(C(O)(c2ccc(Cl)cc2)c2ccc3nc(Cl)c(-c4ccccc4)c(Cl)c3c2)cnc1Cl` (centres unmarked) [Example 141, (2-Chloro-1-methyl-1H-imidazol-5-yl)(4-chlorophenyl)(2,4-dichloro-3-phenylquinolin-6-yl)methanol], in assay [1], the dissociation constant Kd is 0.62 µM. Moreover, on human RORγt LBD, the 50% inhibitory concentration (IC50) came to 0.21 µM and the inhibition at 6 µM was found to be 99%. In assay [2], this compound gave a half-inhibitory concentration (IC50) of 1.2 µM.

`Cn1cncc1C(O)(c1ccc(Cl)cc1)c1ccc2nc(Cl)c(-c3cccc(Cl)c3)c(Cl)c2c1` (centres unmarked) [Example 187, (4-Chlorophenyl)(2,4-dichloro-3-(3-chlorophenyl)quinolin-6-yl)(1-methyl-1H-imidazol-5-yl)methanol]: the Kd in assay [1] is 0.1 µM. Also, at human RORγt LBD, the inhibition at 6 µM came to 73%. Also, in assay [2], the IC50 is > 6 µM.

Consider `CCOc1nc2ccc(C(O)(c3ccncc3)c3cncn3C)cc2c(Cl)c1-c1ccccc1` (centres unmarked) [Example 88, (4-Chloro-2-ethoxy-3-phenylquinolin-6-yl)(1-methyl-1H-imidazol-5-yl)pyridin-4-ylmethanol•TFA], for which the equilibrium dissociation constant (Kd) in assay [1] was 0.0096 µM. Moreover, the figures for the half-inhibitory concentration (IC50) (on human RORγt LBD; in assay [2]) were 0.037 µM and 0.068 µM, respectively. The inhibition at 6 µM at human RORγt LBD was found to be 100%.

In the case of `OC(c1ccc(F)cc1)(c1cccnc1)c1ccc2nc(Cl)c(-c3ccccc3)c(Cl)c2c1` (centres unmarked) [Example 22, (2,4-Dichloro-3-phenylquinolin-6-yl)(4-fluorophenyl)pyridin-3-ylmethanol], the dissociation constant Kd in assay [1] was 0.075 µM. In addition, on human RORγt LBD, the IC50 is 0.22 µM and the inhibition at 6 µM is 104%. In assay [2], the 50% inhibitory concentration (IC50) was determined as 0.44 µM.

In the case of `N#Cc1ccc(C(O)(c2cccc(Cl)c2)c2ccc3nc(C#N)c(-c4ccccc4)c(C#N)c3c2)cn1` (centres unmarked) [Example 104, 6-[(3-Chlorophenyl)(6-cyanopyridin-3-yl)hydroxymethyl]-3-phenylquinoline-2,4-dicarbonitrile•TFA], in assay [1], the Kd was 0.03 µM. Further, at human RORγt LBD, it took 0.039 µM to reach half-maximal inhibition (IC50) and the inhibition at 6 µM was 100%. Further, in assay [2], the IC50 is 0.043 µM.

One may read the Kd as the equilibrium constant for the complex coming apart. Broadly, the IC50 is the point on the concentration scale where inhibition reaches its midpoint. A low value points to greater potency in that assay. In general, inhibition refers to the relative decrease from the control value, in per cent.
